The numbers were not newly measured in patent US12576020B2, “Increasing the stability of agents for the treatment of keratinous material” (Henkel AG & Co. KGaA, priority 2019, dated 2026), which cites them from elsewhere.

For the series the following is noted: 25° C.

`Nc1cc(S(=O)(=O)[O-])cc2cc(S(=O)(=O)[O-])c(N=Nc3ccccc3)c(O)c12.[Na+].[Na+]` [Acid Red 33, disodium salt of 5-amino-4-hydroxy-3-(phenylazo)-naphthalene-2,7-disulphonate]: the solubility in water was 2500 µg/mL.
As to `O=S(=O)([O-])c1ccc(N=Nc2c(O)ccc3ccccc23)cc1.[Na+]` [Acid Orange 7, sodium salt of 4-[(2-hydroxy-1-naphthyl)azo]benzene sulphonate], the solubility in water result is on record as “more than 7 g/L”.
For the molecule `O=C([O-])c1c(Cl)c(Cl)c(Cl)c(Cl)c1-c1c2c(Br)cc(=O)c(Br)c-2oc2c(Br)c(O)cc(Br)c12.O=C([O-])c1c(Cl)c(Cl)c(Cl)c(Cl)c1-c1c2c(Br)cc(=O)c(Br)c-2oc2c(Br)c(O)cc(Br)c12.[Na+].[Na+]` [Acid Red 92, disodium salt of 3,4,5,6-tetrachloro-2-(1,4,5,8-tetrabromo-6-hydroxy-3-oxoxanthen-9-yl)benzoic acid], the solubility in water result is listed as “greater than 10 g/L”.
For `O=C([O-])C1=NN(c2ccc(S(=O)(=O)[O-])cc2)C(=O)C1N=Nc1ccc(S(=O)(=O)[O-])cc1.[Na+].[Na+].[Na+]` (stereo not shown) [Acid Yellow 23, tisodium salt of 4,5-dihydro-5-oxo-1-(4-sulfophenyl)-4-((4-sulfophenyl)azo)-1H-pyrazole-3-carboxylic acid], the “solubility in water (in words)” value is “highly soluble”.
